Measured values: patent publication US8470837B2, “MAPK/ERK kinase inhibitors” (Takeda Pharmaceutical Company Limted, priority 2006, dated 2013)

These compounds were tested against MEK1 (Homo sapiens, UniProt Q02750, DEL30-49/S218E/S222D) (assay: MEK1 inhibition, fluorescence polarization assay with IMAP beads (ERK1 / FI-Erktide coupled)).
MEK1, sequence (Q02750 with tags, fused parts or gaps DEL30-49/S218E/S222D): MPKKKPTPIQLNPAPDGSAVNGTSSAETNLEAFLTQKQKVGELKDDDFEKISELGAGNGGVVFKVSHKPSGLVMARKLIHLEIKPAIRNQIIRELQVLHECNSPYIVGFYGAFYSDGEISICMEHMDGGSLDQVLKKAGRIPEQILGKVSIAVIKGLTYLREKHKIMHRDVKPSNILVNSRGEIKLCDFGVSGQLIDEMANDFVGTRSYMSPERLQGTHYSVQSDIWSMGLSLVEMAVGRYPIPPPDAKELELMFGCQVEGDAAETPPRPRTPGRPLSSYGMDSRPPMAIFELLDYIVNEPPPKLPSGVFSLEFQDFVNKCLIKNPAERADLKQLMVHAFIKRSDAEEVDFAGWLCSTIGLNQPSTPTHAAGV

IC50	Compound
≥ 0.016 µM	COC(=O)Cn1cnc2c(c(Nc3ccc(I)cc3F)cc(=O)n2C)c1=O [Example 3, Methyl 2-(5-(2-fluoro-4-iodophenylamino)-8-methyl-4,7-dioxo-7,8-dihydropyrido[2,3-d]pyrimidin-3(4H)-yl)acetate]
≤ 0.005 µM	Cn1c(=O)c(Cl)c(Nc2ccc(I)cc2F)c2c(=O)n(C[C@H](O)CO)cnc21 [Example 7, (S)-6-Chloro-3-(2,3-dihydroxypropyl)-5-(2-fluoro-4-iodophenylamino)-8-methylpyrido[2,3-d]pyrimidine-4,7(3H,8H)-dione]
≥ 0.016 µM	Cc1c(Nc2ccc(Br)cc2F)c2c(=O)n(C[C@H](O)CO)cnc2n(C)c1=O [Example 9, (S)-5-(4-Bromo-2-fluorophenylamino)-3-(2,3-dihydroxypropyl)-6,8-dimethylpyrido[2,3-d]pyrimidine-4,7(3H,8H)-dione]
≥ 0.016 µM	Cc1c(Nc2ccc(Br)cc2F)c2c(=O)n(C[C@@H](O)CO)cnc2n(C)c1=O [Example 10, (R)-5-(4-Bromo-2-fluorophenylamino)-3-(2,3-dihydroxypropyl)-6,8-dimethylpyrido[2,3-d]pyrimidine-4,7(3H,8H)-dione]
≥ 0.016 µM	Cc1c(Nc2ccc(Br)cc2F)c2c(=O)n(CCO)cnc2n(C)c1=O [Example 11, 5-(4-Bromo-2-fluorophenylamino)-3-(2-hydroxyethyl)-6,8-dimethylpyrido[2,3-d]pyrimidine-4,7(3H,8H)-dione]
≤ 0.005 µM	Cc1c(Nc2ccc(I)cc2F)c2c(=O)n(CCO)cnc2n(C)c1=O [Example 14, 5-(2-Fluoro-4-iodophenylamino)-3-(2-hydroxyethyl)-6,8-dimethylpyrido[2,3-d]pyrimidine-4,7(3H,8H)-dione]
≥ 0.016 µM	Cc1c(Nc2ccccc2F)c2c(=O)n(CCO)cnc2n(C)c1=O [Example 15, 5-(2-Fluorophenylamino)-3-(2-hydroxyethyl)-6,8-dimethylpyrido[2,3-d]pyrimidine-4,7(3H,8H)-dione]
0.005 to 0.015 µM	C#Cc1ccc(Nc2c(C)c(=O)n(C)c3ncn(C[C@@H](O)CO)c(=O)c23)c(F)c1 [Example 16, (R)-3-(2,3-Dihydroxypropyl)-5-(4-ethynyl-2-fluorophenylamino)-6,8-dimethylpyrido[2,3-d]pyrimidine-4,7(3H,8H)-dione]
≤ 0.005 µM	Cn1c(=O)c(F)c(Nc2ccc(I)cc2F)c2c(=O)n(C[C@@H](O)CO)cnc21 [Example 18, (R)-3-(2,3-Dihydroxypropyl)-6-fluoro-5-(2-fluoro-4-iodophenylamino)-8-methylpyrido[2,3-d]pyrimidine-4,7(3H,8H)-dione]
≤ 0.005 µM	Cn1c(=O)c(F)c(Nc2ccc(I)cc2F)c2c(=O)n(C[C@H](O)CO)cnc21 [Example 19, (S)-3-(2,3-Dihydroxypropyl)-6-fluoro-5-(2-fluoro-4-iodophenylamino)-8-methylpyrido[2,3-d]pyrimidine-4,7(3H,8H)-dione]
0.005 to 0.015 µM	C#Cc1ccc(Nc2c(F)c(=O)n(C)c3ncn(C[C@H](O)CO)c(=O)c23)c(F)c1 [Example 21, (S)-3-(2,3-Dihydroxypropyl)-5-(4-ethynyl-2-fluorophenylamino)-6-fluoro-8-methylpyrido[2,3-d]pyrimidine-4,7(3H,8H)-dione]
≤ 0.005 µM	C#Cc1ccc(Nc2c(F)c(=O)n(C)c3ncn(C[C@@H](O)CO)c(=O)c23)c(F)c1 [Example 22, (R)-3-(2,3-dihydroxypropyl)-5-(4-ethynyl-2-fluorophenylamino)-6-fluoro-8-methylpyrido[2,3-d]pyrimidine-4,7(3H,8H)-dione]
≥ 0.016 µM	Cn1c(=O)c(F)c(Nc2ccc(NS(C)(=O)=O)cc2F)c2c(=O)n(C[C@@H](O)CO)cnc21 [Example 23, (R)—N-(4-(3-(2,3-Dihydroxypropyl)-6-fluoro-8-methyl-4,7-dioxo-3,4,7,8-tetrahydropyrido[2,3-d]pyrimidin-5-ylamino)-3-fluorophenyl)methanesulfonamide]
≤ 0.005 µM	Cn1c(=O)c(F)c(Nc2ccc(I)cc2F)c2c(=O)n(C(CO)CO)cnc21 [Example 25, 3-(1,3-Dihydroxypropan-2-yl)-6-fluoro-5-(2-fluoro-4-iodophenylamino)-8-methylpyrido[2,3-d]pyrimidine-4,7(3H,8H)-dione]
≤ 0.005 µM	Cn1c(=O)c(F)c(Nc2ccc(I)cc2F)c2c(=O)n(OC[C@H](O)CO)cnc21 [Example 28, (R)-3-(2,3-Dihydroxypropoxy)-6-fluoro-5-(2-fluoro-4-iodophenylamino)-8-methylpyrido[2,3-d]pyrimidine-4,7(3H,8H)-dione]
0.005 to 0.015 µM	Cn1c(=O)c(Cl)c(Nc2ccc(Br)cc2F)c2c(=O)n(C[C@@H](O)CO)cnc21 [Example 29, (R)-5-(4-Bromo-2-fluorophenylamino)-6-chloro-3-(2,3-dihydroxypropyl)-8-methylpyrido[2,3-d]pyrimidine-4,7(3H,8H)-dione]
≤ 0.005 µM	Cn1c(=O)c(Cl)c(Nc2ccc(I)cc2F)c2c(=O)n(CCO)cnc21 [Example 30, 6-Chloro-5-(2-fluoro-4-iodophenylamino)-3-(2-hydroxyethyl)-8-methylpyrido[2,3-d]pyrimidine-4,7(3H,8H)-dione]
≤ 0.005 µM	Cn1c(=O)cc(Nc2ccc(I)cc2F)c2c(=O)n(CCCO)cnc21 [Example 31, 5-(2-Fluoro-4-iodophenylamino)-3-(3-hydroxypropyl)-8-methylpyrido[2,3-d]pyrimidine-4,7(3H,8H)-dione]
≤ 0.005 µM	Cn1c(=O)c(Cl)c(Nc2ccc(I)cc2F)c2c(=O)n(CCCO)cnc21 [Example 32, 6-Chloro-5-(2-fluoro-4-iodophenylamino)-3-(3-hydroxypropyl)-8-methylpyrido[2,3-d]pyrimidine-4,7(3H,8H)-dione]
≥ 0.016 µM	Cn1c(=O)cc(Nc2ccc(Br)cc2F)c2c(=O)n(CCCO)cnc21 [Example 33, 5-(4-Bromo-2-fluorophenylamino)-3-(3-hydroxypropyl)-8-methylpyrido[2,3-d]pyrimidine-4,7(3H,8H)-dione]
0.005 to 0.015 µM	Cn1c(=O)c(Cl)c(Nc2ccc(Br)cc2F)c2c(=O)n(CCCO)cnc21 [Example 34, 5-(4-Bromo-2-fluorophenylamino)-6-chloro-3-(3-hydroxypropyl)-8-methylpyrido[2,3-d]pyrimidine-4,7(3H,8H)-dione]
≥ 0.016 µM	Cn1c(=O)cc(Nc2ccc(Br)cc2Cl)c2c(=O)n(CCCO)cnc21 [Example 35, 5-(4-Bromo-2-chlorophenylamino)-3-(3-hydroxypropyl)-8-methylpyrido[2,3-d]pyrimidine-4,7(3H,8H)-dione]
≥ 0.016 µM	Cn1c(=O)c(Cl)c(Nc2ccc(Br)cc2Cl)c2c(=O)n(CCCO)cnc21 [Example 36, 5-(4-Bromo-2-chlorophenylamino)-6-chloro-3-(3-hydroxypropyl)-8-methylpyrido[2,3-d]pyrimidine-4,7(3H,8H)-dione]
≥ 0.016 µM	CN(C)CCn1cnc2c(c(Nc3ccc(I)cc3F)cc(=O)n2C)c1=O [Example 37, 3-(2-(Dimethylamino)ethyl)-5-(2-fluoro-4-iodophenylamino)-8-methylpyrido[2,3-d]pyrimidine-4,7(3H,8H)-dione]
≥ 0.016 µM	CC(O)Cn1cnc2c(c(Nc3ccc(I)cc3F)cc(=O)n2C)c1=O (centres unmarked) [Example 38, 5-(2-Fluoro-4-iodophenylamino)-3-(2-hydroxypropyl)-8-methylpyrido[2,3-d]pyrimidine-4,7(3H,8H)-dione]
0.005 to 0.015 µM	CC(O)Cn1cnc2c(c(Nc3ccc(I)cc3F)c(Cl)c(=O)n2C)c1=O (centres unmarked) [Example 40, 6-Chloro-5-(2-fluoro-4-iodophenylamino)-3-(2-hydroxypropyl)-8-methylpyrido[2,3-d]pyrimidine-4,7(3H,8H)-dione]
≥ 0.016 µM	Cn1c(=O)cc(Nc2ccc(I)cc2F)c2c(=O)n(Cc3ccccc3)cnc21 [Example 42, 3-Benzyl-5-(2-fluoro-4-iodophenylamino)-8-methylpyrido[2,3-d]pyrimidine-4,7(3H,8H)-dione]
0.005 to 0.015 µM	Cc1c(Nc2ccc(I)cc2F)c2c(=O)n(C(CO)CO)cnc2n(C)c1=O [Example 43, 3-(1,3-Dihydroxypropan-2-yl)-5-(2-fluoro-4-iodophenylamino)-6,8-dimethylpyrido[2,3-d]pyrimidine-4,7(3H,8H)-dione]
0.005 to 0.015 µM	C#Cc1ccc(Nc2c(C)c(=O)n(C)c3ncn(C[C@H](O)CO)c(=O)c23)c(F)c1 [Example 44, (S)-3-(2,3-Dihydroxypropyl)-5-(4-ethynyl-2-fluorophenylamino)-6,8-dimethylpyrido[2,3-d]pyrimidine-4,7(3H,8H)-dione]
